One series deals with T1, hmGluR5 (Homo sapiens, UniProt P41594).
T1 construct: expressed in transfected cells
In words: inhibition of quisqualate-induced inositol phosphate turnover in hmGluR5 expressing cells. The class given is cell-based. Conditions: agonist quisqualate, read-out: IC50 concentration, inhibition of quisqualate-induced inositol phosphate turnover. The source says: This can be determined in vitro for example at recombinant human metabotropic glutamate receptors, especially PLC-coupled subtypes thereof such as mGluR5, using different procedures like, for example, measurement of the inhibition of the agonist induced elevation of intracellular Ca^2+ concentration in accordance with L. P. Daggett et al., Neuropharm. Vol. 34, pages 871-886 (1995), P. J. Flor et al., J. Neurochem. Vol. 67, pages 58-63 (1996) or by determination to what extent the agonist induced elevation of the inositol phosphate turnover is inhibited as described by T. Knoepfel et al., Eur. J. Pharmacol. Vol. 288, pages 389-392 (1994), L. P. Daggett et al., Neuropharm. Vol. 67, pages 58-63 (1996) and references cited therein. Isolation and expression of human mGluR subtypes are described in U.S. Pat. No. 5,521,297. Selected agents of the invention show IC50 values for the inhibition of the agonist (e.g. glutamate or quisqualate) induced elevation of intracellular Ca2+ concentration or the agonist (e.g. glutamate or quisqualate) induced inositol phosphate turnover, measured in recombinant cells expressing hmGluR5a of about 1nM to about 50 μM.

Series [1] has as its system stress-induced hyperthermia. In words: stress-induced hyperthermia in mice. Conditions: control hyperthermia 0.98±0.08° C. It counts as in vivo. Here is the method:
A. Lecci et al., Psychopharmacol. 101, 255-261]. At doses of about 0.1 to about 30 mg/kg p.o., selected agents of the invention reverse the stress-induced hyperthermia.
With (±)-(1R,3R)-3-(4-Chloro-phenylamino)-1-(3-chloro-phenylethynyl)-cyclohexanol, a stress-induced hyperthermia of 0.98±0.08° C. was reduced to 0.66±0.06° C. at 1 mg/kg p.o., to […] at 3 mg/kg p.o.; to 0.58±0.06° C. at 10 mg/kg p.o. and to 0.33±0.04° C. at 30 mg/kg p.o. (p<0.05; p<0.0011; p<0.01; p<0.001 respectively).

pIC50: −log10 of the molar value. Where a name gives a salt, the structure may show the parent alone.

One may read the melting point as the temperature, or range, at which the solid turns liquid.

T1 sequence (P41594 21-1180 isoform P41594-2 limits assumed): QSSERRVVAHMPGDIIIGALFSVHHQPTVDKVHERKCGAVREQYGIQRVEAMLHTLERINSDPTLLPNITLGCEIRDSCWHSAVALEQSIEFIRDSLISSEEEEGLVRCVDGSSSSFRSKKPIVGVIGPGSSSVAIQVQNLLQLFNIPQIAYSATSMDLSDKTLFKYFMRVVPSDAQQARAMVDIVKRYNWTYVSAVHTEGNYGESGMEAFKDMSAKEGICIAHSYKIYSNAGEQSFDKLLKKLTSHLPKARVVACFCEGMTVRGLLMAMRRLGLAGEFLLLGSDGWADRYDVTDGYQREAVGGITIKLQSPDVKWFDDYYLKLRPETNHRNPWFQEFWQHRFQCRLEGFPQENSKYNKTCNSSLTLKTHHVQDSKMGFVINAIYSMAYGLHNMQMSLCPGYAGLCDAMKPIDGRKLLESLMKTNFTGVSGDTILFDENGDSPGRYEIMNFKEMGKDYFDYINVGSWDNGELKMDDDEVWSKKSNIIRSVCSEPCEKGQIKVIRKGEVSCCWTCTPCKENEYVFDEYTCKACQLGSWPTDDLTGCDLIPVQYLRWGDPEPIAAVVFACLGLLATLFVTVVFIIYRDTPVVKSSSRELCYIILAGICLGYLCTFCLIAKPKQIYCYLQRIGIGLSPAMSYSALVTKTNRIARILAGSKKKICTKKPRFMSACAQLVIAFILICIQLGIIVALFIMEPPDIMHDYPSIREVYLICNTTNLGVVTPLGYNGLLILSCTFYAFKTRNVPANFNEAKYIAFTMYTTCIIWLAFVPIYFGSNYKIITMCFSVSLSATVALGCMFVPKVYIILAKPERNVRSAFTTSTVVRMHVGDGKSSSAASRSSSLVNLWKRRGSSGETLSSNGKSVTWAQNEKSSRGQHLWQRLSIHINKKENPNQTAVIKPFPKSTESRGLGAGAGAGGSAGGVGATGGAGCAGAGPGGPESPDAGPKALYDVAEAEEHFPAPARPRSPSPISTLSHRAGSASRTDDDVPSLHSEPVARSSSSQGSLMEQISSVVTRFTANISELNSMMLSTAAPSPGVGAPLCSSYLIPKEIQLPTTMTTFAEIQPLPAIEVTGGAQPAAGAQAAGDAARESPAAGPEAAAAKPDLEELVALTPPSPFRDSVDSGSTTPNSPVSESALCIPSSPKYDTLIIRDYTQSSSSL

The compound `O[C@]1(C#Cc2cccc(Cl)c2)CCC[C@@H](Nc2cc(-c3ccco3)[nH]n2)C1` [Example 1.27, (1R,3R)-1-(3-Chloro-phenylethynyl)-3-(5-furan-2-yl-1H-pyrazol-3-ylamino)-cyclohexanol] displayed a melting point of 78 to 85 °C.
Still for that read-out and setting: then `O[C@]1(C#Cc2cccc(Cl)c2)CCC[C@@H](Nc2ccc(Cl)cc2)C1` (racemic) (as salt: hydrochloride) [Example 1, (±)-(1R,3R)-3-(4-Chloro-phenylamino)-1-(3-chloro-phenylethynyl)-cyclohexanol], with 153 to 163 °C; and `O[C@@]1(C#Cc2cccc(Cl)c2)CCC[C@H](Nc2cc(-c3ccco3)[nH]n2)C1` [Example 1.26, (1S,3S)-1-(3-Chloro-phenylethynyl)-3-(5-furan-2-yl-1H-pyrazol-3-ylamino)-cyclohexanol], with 83 to 88 °C.
Take `O[C@]1(C#Cc2cccc(Cl)c2)CCC[C@@H](Nc2ccc(Cl)cc2)C1` (racemic) [Example 1, (±)-(1R,3R)-3-(4-Chloro-phenylamino)-1-(3-chloro-phenylethynyl)-cyclohexanol]: on hmGluR5, the pIC50 was 5.80. The “stress-induced hyperthermia after treatment” value was 0.66±0.06 °C in series [1] (1 mg/kg p.o., p<0.05); 0.43±10 °C in series [1] (3 mg/kg p.o., p<0.0011); 0.58±0.06 °C in series [1] (10 mg/kg p.o., p<0.01); 0.33±0.04 °C in series [1] (30 mg/kg p.o., p<0.001).

The values above are taken from US20080188490A1, “Acetylene Derivatives” (priority 2005, published 2008).
